The structures appear in SMILES notation. Values after ≈ are worked out from the molar mass of the structure shown.

In one data set the test system is Aphidius rhopalosiphi. The experiment in a line: LR50; higher = less toxic. To be noted: not reported; other.
In the next data set the test system is Typhlodromus pyri. The note with it: not reported; other.
Another data set has as its system Bibionidae. The note with it: chronic/long-term.
For the next data set, the system named is Apis mellifera. To be noted: acute, mortality.
The next data set has as its system Daphnia magna. The note with it: chronic/long-term; duration: 21 days; other.
A further data set has as its system Oncorhynchus mykiss. To be noted: chronic/long-term; duration: 21 days.
The subject of the next data set is Colinus virginianus. The note with it: acute; oral; diet; mortality.
The subject of a further data set is Lepomis macrochirus. The note with it: acute; duration: 96 hours; mortality.

One may read the NOAEL as the highest tested level that showed no adverse finding. On to `Cc1cc(C2CC2)nc(Nc2ccccc2)n1` [Cyprodinil], for which, in the data set with Aphidius rhopalosiphi, the LR50 worked out at 750 g/ha. The LEL in the data set with Typhlodromus pyri amounted to 750 g/ha. In addition, the NOEC turned out to be 80 mg/kg in the data set with Bibionidae (duration: 27 days, other); 0.24 mg/L in the data set with Bibionidae (duration: 28 days, no effects); 0.0082 mg/L with Daphnia magna; 64 mg/kg in the data set with Anas platyrhynchos (reproductive); 0.083 mg/L in the data set on Oncorhynchus mykiss; 15000 g/ha in the data set with Tagia sp. (chronic/long-term, duration: 56 days, reproduction). Further, the LD50 is above 784 µg/piece with Apis mellifera (duration: 48 hours, dermal); above 112 µg/piece with Apis mellifera (oral, unspecified); above 500 mg/kg with Anas platyrhynchos (acute, oral, unspecified, mortality); above 2000 mg/kg in the data set on Rattus norvegicus (acute, oral, mortality). Moreover, the LC50 in the data set on Tagia sp. (acute, duration: 14 days, mortality) is 192 mg/kg; in the data set with Colinus virginianus, above 743 mg/kg; in the data set with Lepomis macrochirus it was 2.17 µg/mL (≈ 9.63 µM). Also, the NOAEL is 3 mg/kg-day with Rattus norvegicus (chronic, duration: 2 years, M/F, organ weight); 72.7 mg/kg-day in the data set on Rattus norvegicus (reproduction developmental, organ weight); 3.14 mg/kg-day with Rattus norvegicus (subchronic, duration: 90 days, histopathology: nonneoplastic).

The values are drawn from EPA's ToxValDB 9.5 (doi:10.2903/j.efsa.2006.51r).
